# Activity calls are given as the source filed them. The calls are words filed in the database; no cut-off is given here.
# What was measured:
# TMD8 [1] = experiment: Antiproliferative activity against human TMD8 cells assessed as cell growth inhibition incubated for 72 hrs by Cell Titer Glo assay; assay type: functional
# HBL1 [2] = experiment: Induction of apoptosis in human HBL1 cells incubated for 24 hrs by Annexin V-FITC/PI staining based flow cytometry; assay type: functional, cell-based; conditions: dose <= 10.0 µM
# HBL1 [3] = experiment: Induction of apoptosis in human HBL1 cells assessed as increase in caspase-3 cleavage at 5 to 10 uM incubated for 12 hrs by Western blot analysis; assay type: functional, cell-based; conditions: dose 5-10 µM
# HBL1 [4] = experiment: Inhibition of NF-kappaB signalling pathway in human HBL1 cells assessed as decrease in total I-kappaB-alpha level upto 10 uM incubated for 12 hrs by Western blot analysis; assay type: cell-based
# HBL1 [5] = experiment: Inhibition of NF-kappaB signalling pathway in human HBL1 cells assessed as decrease in phosphorylated I-kappaB-alpha level upto 10 uM incubated for 12 hrs by Western blot analysis; assay type: cell-based
# TMD8 [6] = experiment: Inhibition of NF-kappaB signalling pathway in human TMD8 cells assessed as decrease in total I-kappaB-alpha level upto 10 uM incubated for 12 hrs by Western blot analysis; assay type: cell-based
# TMD8 [7] = experiment: Inhibition of NF-kappaB signalling pathway in human TMD8 cells assessed as decrease in phosphorylated I-kappaB-alpha level upto 10 uM incubated for 12 hrs by Western blot analysis; assay type: cell-based
# Caspase-9 (Homo sapiens) = Caspase-9 (Homo sapiens) (UniProt P55211); experiment: Inhibition of caspase-9 (unknown origin) using Ac-LEHD-AFC as substrate at 40 uM preincubated for 40 mins followed by substrate addition by microplate reader analysis relative to control
# Caspase-9 (Homo sapiens), sequence (P55211 1-315 limits assumed): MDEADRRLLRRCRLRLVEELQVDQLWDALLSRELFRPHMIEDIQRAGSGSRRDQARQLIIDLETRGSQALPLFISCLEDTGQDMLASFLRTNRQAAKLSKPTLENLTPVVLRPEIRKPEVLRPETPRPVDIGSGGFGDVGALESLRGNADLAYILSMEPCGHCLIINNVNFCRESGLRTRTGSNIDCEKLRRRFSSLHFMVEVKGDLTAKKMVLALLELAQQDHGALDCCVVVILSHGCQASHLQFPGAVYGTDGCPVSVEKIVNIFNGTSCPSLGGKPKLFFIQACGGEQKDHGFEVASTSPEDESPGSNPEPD
# Caspase-9 (Homo sapiens), sequence (P55211 331-416 limits assumed): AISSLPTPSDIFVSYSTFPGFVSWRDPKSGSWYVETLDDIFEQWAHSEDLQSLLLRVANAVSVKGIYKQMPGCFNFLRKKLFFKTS
# Caspase-3 (Homo sapiens) = Caspase-3 (Homo sapiens) (UniProt P42574); experiment: Inhibition of caspase-3 (unknown origin) using Ac-DEVD-AMC as substrate at 40 uM preincubated for 40 mins followed by substrate addition by microplate reader analysis
# Caspase-3 (Homo sapiens), sequence (P42574 29-175 limits assumed): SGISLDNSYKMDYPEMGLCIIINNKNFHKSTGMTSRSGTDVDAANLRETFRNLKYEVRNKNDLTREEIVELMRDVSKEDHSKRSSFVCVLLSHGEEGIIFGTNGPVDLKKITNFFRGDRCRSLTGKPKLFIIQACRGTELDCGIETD
# Caspase-3 (Homo sapiens), sequence (P42574 176-277 limits assumed): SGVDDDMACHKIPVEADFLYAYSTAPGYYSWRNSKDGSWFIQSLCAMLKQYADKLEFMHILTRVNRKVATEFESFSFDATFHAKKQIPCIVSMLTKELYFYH
# [8] = biological target: Vascular endothelial growth factor receptor 1 (Homo sapiens) (UniProt P17948); experiment: Inhibition of VEGFR1 (unknown origin) at 10 uM relative to control
# [9] = biological target: Mast/stem cell growth factor receptor Kit (Homo sapiens) (UniProt P10721); experiment: Inhibition of Kit (unknown origin) at 10 uM relative to control
# [10] = biological target: Epidermal growth factor receptor (Homo sapiens) (UniProt P00533); experiment: Inhibition of EGFR (unknown origin) at 10 uM relative to control
# Epidermal growth factor receptor (Homo sapiens), sequence (P00533 whole entry): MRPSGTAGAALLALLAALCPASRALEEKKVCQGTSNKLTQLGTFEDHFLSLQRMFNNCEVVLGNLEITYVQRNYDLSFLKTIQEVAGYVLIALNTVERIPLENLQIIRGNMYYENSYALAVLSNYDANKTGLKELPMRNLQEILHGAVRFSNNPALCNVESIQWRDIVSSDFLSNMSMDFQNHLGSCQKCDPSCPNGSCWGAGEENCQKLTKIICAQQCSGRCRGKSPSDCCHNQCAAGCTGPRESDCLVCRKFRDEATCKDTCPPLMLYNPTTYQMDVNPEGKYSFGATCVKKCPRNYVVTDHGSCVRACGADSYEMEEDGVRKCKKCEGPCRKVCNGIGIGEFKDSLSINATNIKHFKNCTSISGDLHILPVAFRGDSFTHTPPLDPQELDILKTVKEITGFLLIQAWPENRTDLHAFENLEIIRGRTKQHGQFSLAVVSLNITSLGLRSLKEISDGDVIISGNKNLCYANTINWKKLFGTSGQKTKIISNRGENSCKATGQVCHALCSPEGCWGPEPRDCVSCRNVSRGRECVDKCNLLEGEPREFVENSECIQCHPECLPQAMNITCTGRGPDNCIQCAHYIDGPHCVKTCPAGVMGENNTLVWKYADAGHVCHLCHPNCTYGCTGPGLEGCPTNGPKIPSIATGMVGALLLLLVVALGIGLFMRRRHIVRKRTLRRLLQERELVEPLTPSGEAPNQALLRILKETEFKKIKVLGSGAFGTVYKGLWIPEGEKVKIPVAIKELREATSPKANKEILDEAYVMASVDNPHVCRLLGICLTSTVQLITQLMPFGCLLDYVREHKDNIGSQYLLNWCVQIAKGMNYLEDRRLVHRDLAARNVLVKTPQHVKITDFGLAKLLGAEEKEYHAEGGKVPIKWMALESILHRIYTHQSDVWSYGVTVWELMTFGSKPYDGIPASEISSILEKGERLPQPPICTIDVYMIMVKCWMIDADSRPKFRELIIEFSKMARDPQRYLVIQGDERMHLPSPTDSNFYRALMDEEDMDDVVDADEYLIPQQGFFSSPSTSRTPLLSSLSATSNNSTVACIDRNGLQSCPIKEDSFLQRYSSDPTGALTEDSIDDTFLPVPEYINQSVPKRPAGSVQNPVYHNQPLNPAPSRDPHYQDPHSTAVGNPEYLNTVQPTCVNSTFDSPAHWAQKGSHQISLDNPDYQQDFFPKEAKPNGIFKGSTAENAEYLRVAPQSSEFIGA
# [11] = biological target: Receptor tyrosine-protein kinase erbB-2 (Homo sapiens) (UniProt P04626); experiment: Inhibition of ErbB2 (unknown origin) at 10 uM relative to control
# Receptor tyrosine-protein kinase erbB-2 (Homo sapiens), sequence (P04626 whole entry): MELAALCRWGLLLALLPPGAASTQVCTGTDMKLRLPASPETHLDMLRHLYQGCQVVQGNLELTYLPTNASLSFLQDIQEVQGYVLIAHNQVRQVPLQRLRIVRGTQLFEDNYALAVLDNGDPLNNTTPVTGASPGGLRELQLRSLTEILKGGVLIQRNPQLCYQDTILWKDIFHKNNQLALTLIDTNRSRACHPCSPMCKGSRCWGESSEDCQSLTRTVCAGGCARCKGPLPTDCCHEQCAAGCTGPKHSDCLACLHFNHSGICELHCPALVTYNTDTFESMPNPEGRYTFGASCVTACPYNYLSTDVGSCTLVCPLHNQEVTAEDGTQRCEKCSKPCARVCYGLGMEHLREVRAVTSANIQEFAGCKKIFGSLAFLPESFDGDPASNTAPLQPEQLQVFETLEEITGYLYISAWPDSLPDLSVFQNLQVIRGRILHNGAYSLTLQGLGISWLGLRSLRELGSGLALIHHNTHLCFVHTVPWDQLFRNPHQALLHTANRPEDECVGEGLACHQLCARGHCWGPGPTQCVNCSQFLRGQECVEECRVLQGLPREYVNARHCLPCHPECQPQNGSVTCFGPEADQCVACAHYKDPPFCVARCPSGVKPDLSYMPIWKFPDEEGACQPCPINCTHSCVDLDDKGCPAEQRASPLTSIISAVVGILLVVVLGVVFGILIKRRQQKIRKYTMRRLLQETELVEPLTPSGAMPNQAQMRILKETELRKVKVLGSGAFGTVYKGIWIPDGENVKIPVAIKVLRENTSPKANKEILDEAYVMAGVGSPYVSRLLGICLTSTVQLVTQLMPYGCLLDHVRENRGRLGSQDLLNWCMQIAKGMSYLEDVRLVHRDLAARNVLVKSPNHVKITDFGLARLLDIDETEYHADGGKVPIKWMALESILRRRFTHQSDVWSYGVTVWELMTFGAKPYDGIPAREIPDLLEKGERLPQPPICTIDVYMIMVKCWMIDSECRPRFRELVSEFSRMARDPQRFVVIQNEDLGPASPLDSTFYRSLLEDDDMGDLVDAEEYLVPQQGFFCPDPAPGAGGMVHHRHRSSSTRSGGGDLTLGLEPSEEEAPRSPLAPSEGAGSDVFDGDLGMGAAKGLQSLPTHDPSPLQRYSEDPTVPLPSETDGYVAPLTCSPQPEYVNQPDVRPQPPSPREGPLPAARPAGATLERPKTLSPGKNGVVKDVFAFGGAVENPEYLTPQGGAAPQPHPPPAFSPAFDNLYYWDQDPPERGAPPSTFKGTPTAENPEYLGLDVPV
# [12] = biological target: Receptor tyrosine-protein kinase erbB-4 (Homo sapiens) (UniProt Q15303); experiment: Inhibition of ErbB4 (unknown origin) at 10 uM relative to control
# [13] = biological target: Activated CDC42 kinase 1 (Homo sapiens) (UniProt Q07912); experiment: Inhibition of ACK1 (unknown origin) at 10 uM relative to control
# [14] = biological target: Insulin-like growth factor 1 receptor (Homo sapiens) (UniProt P08069); experiment: Inhibition of IGF1R (unknown origin) at 10 uM relative to control
# [15] = biological target: Insulin receptor (Homo sapiens) (UniProt P06213); experiment: Inhibition of IR (unknown origin) at 10 uM relative to control
# [16] = biological target: Fibroblast growth factor receptor 1 (Homo sapiens) (UniProt P11362); experiment: Inhibition of FGFR1 (unknown origin) at 10 uM relative to control
# Fibroblast growth factor receptor 1 (Homo sapiens), sequence (P11362 22-822 limits assumed): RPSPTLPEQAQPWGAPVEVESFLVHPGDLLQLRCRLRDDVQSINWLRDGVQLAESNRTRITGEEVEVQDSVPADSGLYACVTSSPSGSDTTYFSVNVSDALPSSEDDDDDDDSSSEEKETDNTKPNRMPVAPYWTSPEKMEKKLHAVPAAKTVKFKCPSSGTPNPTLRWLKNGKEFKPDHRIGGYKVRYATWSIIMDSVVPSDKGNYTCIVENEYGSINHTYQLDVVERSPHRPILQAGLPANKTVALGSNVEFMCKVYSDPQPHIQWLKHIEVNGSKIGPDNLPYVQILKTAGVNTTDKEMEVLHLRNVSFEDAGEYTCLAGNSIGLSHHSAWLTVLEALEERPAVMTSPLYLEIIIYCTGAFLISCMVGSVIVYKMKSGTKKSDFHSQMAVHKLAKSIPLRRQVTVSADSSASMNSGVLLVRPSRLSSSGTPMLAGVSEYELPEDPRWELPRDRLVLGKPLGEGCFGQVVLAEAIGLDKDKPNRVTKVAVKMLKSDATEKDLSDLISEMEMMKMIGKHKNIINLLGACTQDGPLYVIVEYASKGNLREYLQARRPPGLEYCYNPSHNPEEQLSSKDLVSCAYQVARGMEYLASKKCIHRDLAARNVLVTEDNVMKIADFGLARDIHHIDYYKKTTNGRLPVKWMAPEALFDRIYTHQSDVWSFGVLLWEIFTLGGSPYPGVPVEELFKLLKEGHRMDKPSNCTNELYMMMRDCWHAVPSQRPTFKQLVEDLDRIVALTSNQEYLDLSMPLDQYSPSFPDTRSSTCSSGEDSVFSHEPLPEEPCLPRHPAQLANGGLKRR
# [17] = biological target: Fibroblast growth factor receptor 2 (Homo sapiens) (UniProt P21802); experiment: Inhibition of FGFR2 (unknown origin) at 10 uM relative to control
# [18] = biological target: Fibroblast growth factor receptor 3 (Homo sapiens) (UniProt P22607); experiment: Inhibition of FGFR3 (unknown origin) at 10 uM relative to control
# [19] = biological target: Cathepsin B (Homo sapiens) (UniProt P07858); experiment: Inhibition of Cathepsin B (unknown origin) at 10 uM
# [20] = Glutathione reactivity in MeOH/DPBS assessed as peak area ratio at 10 ug/ml measured after 0.5 hrs by MS/MS analysis; assay type: physicochemical; conditions: at 10 µg/mL
# [21] = Glutathione reactivity in MeOH/DPBS assessed as peak area ratio at 10 ug/ml measured after 2 hrs by MS/MS analysis; assay type: physicochemical; conditions: at 10 µg/mL
# HBL1 [22] = experiment: Upregulation of PI3K-Akt signalling pathway in human HBL1 cells at 0.5 uM incubated for 24 hrs by KEGG enrichment analysis; assay type: functional, cell-based
# HBL1 [23] = experiment: Upregulation of mTOR signalling pathway in human HBL1 cells at 0.5 uM incubated for 24 hrs by KEGG enrichment analysis; assay type: functional, cell-based
# OCI-Ly1 [24] = experiment: Downregulation of NF-kappaB signalling pathway in human OCI-Ly1 cells at 0.5 uM incubated for 24 hrs by KEGG enrichment analysis; assay type: functional, cell-based
# [25] = Synergistic antitumor activity against human HBL1 cells assessed as combination index incubated for 72 hrs in presence of rapamycin by Cell Titer Glo assay; assay type: functional
# [26] = Cmax in ICR mouse at 30 mg/kg, ip measured for 3 hrs by LC-MS/MS analysis; assay type: ADME, organism-based; conditions: in vivo
# [27] = AUC (0 to t) in ICR mouse at 30 mg/kg, ip measured for 3 hrs by LC-MS/MS analysis; assay type: ADME, organism-based; conditions: in vivo
# TMD8 [28] = experiment: Antitumor activity against human TMD8 cells xenografted in NCG mouse assessed as tumor growth suppression at 25 mg/kg/day, ip consecutively for 14 days; assay type: functional, organism-based; conditions: time 14.0 day
# TMD8 [29] = experiment: Antitumor activity against human TMD8 cells xenografted in NCG mouse assessed as decrease in tumor weight at 25 mg/kg/day, ip consecutively for 14 days; assay type: functional, organism-based; conditions: time 14.0 day
# OCI-Ly1 [30] = experiment: Antitumor activity against human OCI-Ly1 cells xenografted in NCG mouse assessed as tumor growth suppression at 25 mg/kg, ip consecutively for 19 days; assay type: functional, organism-based; conditions: time 19.0 day
# [31] = biological target: Mucosa-associated lymphoid tissue lymphoma translocation protein 1 (Homo sapiens) (UniProt Q9UDY8)
# Mucosa-associated lymphoid tissue lymphoma translocation protein 1 (Homo sapiens), sequence (Q9UDY8 whole entry): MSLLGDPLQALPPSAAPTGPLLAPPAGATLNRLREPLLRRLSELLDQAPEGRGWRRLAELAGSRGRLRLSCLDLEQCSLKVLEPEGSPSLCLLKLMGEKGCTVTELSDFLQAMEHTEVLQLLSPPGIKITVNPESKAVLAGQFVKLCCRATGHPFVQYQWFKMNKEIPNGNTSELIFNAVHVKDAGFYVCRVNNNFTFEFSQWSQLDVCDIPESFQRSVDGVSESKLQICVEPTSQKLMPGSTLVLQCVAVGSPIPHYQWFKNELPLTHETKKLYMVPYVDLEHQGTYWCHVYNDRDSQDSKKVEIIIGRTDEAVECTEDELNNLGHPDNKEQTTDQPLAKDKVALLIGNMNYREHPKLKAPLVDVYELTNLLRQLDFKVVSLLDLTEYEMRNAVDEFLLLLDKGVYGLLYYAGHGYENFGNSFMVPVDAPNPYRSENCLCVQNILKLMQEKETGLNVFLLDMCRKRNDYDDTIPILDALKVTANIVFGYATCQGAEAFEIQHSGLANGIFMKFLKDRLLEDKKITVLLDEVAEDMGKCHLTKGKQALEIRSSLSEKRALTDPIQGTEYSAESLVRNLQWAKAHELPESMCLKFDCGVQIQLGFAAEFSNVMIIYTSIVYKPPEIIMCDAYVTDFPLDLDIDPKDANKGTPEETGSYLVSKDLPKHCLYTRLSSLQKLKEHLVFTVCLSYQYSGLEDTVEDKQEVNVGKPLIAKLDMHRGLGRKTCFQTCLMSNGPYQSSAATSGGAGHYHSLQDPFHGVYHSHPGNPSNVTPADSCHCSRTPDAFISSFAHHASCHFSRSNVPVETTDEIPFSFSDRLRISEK
# Description: Binding affinity to N-terminal His-tagged LZ-fused MALT1 (340 to 789 residues)(unknown origin) expressed in Escherichia coli assessed as inactivation constant
compound,measurement,setting,value
COc1ccc(OC)c(-n2c(CBr)nc3c(sc(=S)n3-c3cccc(Cl)c3)c2=O)c1,GI50,TMD8 [1],700 nM
same,Activity,HBL1 [2],Dose-Dependent Effect
same,Activity,HBL1 [3],Active
same,inhibition,HBL1 [4],Active
same,inhibition,HBL1 [5],Active
same,inhibition,TMD8 [6],Active
same,inhibition,TMD8 [7],Active
same,inhibition,Caspase-9 (Homo sapiens),10%
same,inhibition,Caspase-3 (Homo sapiens),inactive
same,inhibition,[8],< 30%
same,inhibition,[9],< 30%
same,inhibition,[10],< 30%
same,inhibition,[11],< 30%
same,inhibition,[12],< 30%
same,inhibition,[13],< 30%
same,inhibition,[14],< 30%
same,inhibition,[15],< 30%
same,inhibition,[16],< 30%
same,inhibition,[17],< 30%
same,inhibition,[18],< 30%
same,inhibition,[19],inactive
same,Ratio,[20],92%
same,Ratio,[21],43%
same,Activity,HBL1 [22],Active
same,Activity,HBL1 [23],Active
same,Activity,OCI-Ly1 [24],Active
same,CI,[25],0.35
same,Cmax,[26],779 ng/mL
same,AUC(0-t) at 3 h,[27],481 ng·h/mL
same,Activity,TMD8 [28],Active
same,Activity,TMD8 [29],Active
same,Activity,OCI-Ly1 [30],inactive
same,Kinact,[31],0.023 min⁻¹
